From patent publication US20050159599A1, “Cyclic compound, process for producing the same, and pest control agent” (priority 2002, published 2005)

Each compound was assayed on Spodoptera litura (assay: Insecticidal effect for Spodoptera litura by spraying treatment to host crop (Test Example 2)). Conditions: 100 ppm; sprayed on soybean; third-instar larvae of Spodoptera litura; fifth day after.
Format: in vivo
Experimental: Insecticidal Effect for Spodoptera litura by Spraying Treatment to Host Crop
A pesticidal solution, which was prepared by dissolving 5 mg of test compound (represented by the compound Nos. in the above Examples) in 0.5-ml of acetone containing Tween 20 (trade name) and then diluting it to the prescribed concentration (100 ppm) with Dain (trade name, sticker) water diluted 5000-fold, was sprayed on a soybean whose primary leaves had developed completely with spray gun in the amounts wherein the pesticidal solution dripped. After drying the pesticidal solution, two primary leaves were cut off. The leaves were put into an ice cream cup (180 ml), and ten third-instar larvae of Spodoptera litura were set free therein. The cup was left in a temperature-controlled breeding room (25° C.). On the fifth day after, the number of surviving Spodoptera litura was examined. The rate of dead pests was calculated by the following formula. rate of dead pests (%)=(number of dead pests/number of test pests)×100

SMILES | rate of dead pests (%)
CSc1cc(F)c(N2COCN(C(=O)c3c(F)cccc3Cl)C2=O)c(F)c1 [I-208] | 100
O=C(c1c(F)cccc1F)N1COCN(c2cc(Cl)c(OC(F)(F)C(F)C(F)(F)F)cc2Cl)C1=O (stereo not drawn) [I-6] | 100
O=C(c1c(F)cccc1F)N1COCN(c2ccc(SC(F)(F)F)c(Cl)c2)C1=O [I-77] | 100
Cc1cc(SC(F)(F)F)c(F)cc1N1COCN(C(=O)c2c(F)cccc2Cl)C1=O [I-302] | 100
O=C(c1c(F)cccc1Cl)N1COCN(c2ccc(SC(F)(F)C(F)(F)C(F)(F)F)cc2Cl)C1=O [I-323] | 100
O=C(c1c(F)cccc1F)N1CN(C2CC2)CN(c2ccc(Oc3ccc(C(F)(F)F)cc3Cl)cc2F)C1=O [III-36] | 100
O=C(c1c(F)cccc1Cl)N1COCN(c2ccc(SC(F)(F)F)c(F)c2F)C1=O [I-284] | 100
O=C(c1c(F)cccc1F)N1CN(c2ccccc2)CN(c2ccc(Oc3ccc(C(F)(F)F)cc3Cl)cc2F)C1=O [III-30] | 100
Cc1cc(SC(F)(F)C(F)(F)C(F)(F)F)c(Cl)cc1N1COCN(C(=O)c2c(F)cccc2Cl)C1=O [I-329] | 100
O=C(c1c(F)cccc1F)N1COCN(c2c(F)cc([S+]([O-])C(F)(F)F)c(F)c2F)C1=O (stereo not drawn) [I-117] | 100
O=C(c1c(F)cccc1F)N1COCN(c2cc(F)c(SC(F)(F)F)cc2F)C1=O [I-110] | 100
Cc1cc(SC(F)(F)F)ccc1N1CN(C)CN(C(=O)c2c(F)cccc2Cl)C1=O [III-455] | 100
O=C(c1c(F)cccc1F)N1COCN(c2cc(Cl)c(OC(F)(F)C(F)F)c(Cl)c2)C1=O [I-5] | 100
Cc1cc(N2COCN(C(=O)c3c(F)cccc3Cl)C2=O)ccc1SC(F)(F)F [I-248] | 100
O=C(c1c(F)cccc1Cl)N1COCN(c2c(F)cc([S+]([O-])C(F)(F)F)c(F)c2F)C1=O (stereo not drawn) [I-294] | 100
CC(=O)N1CN(C(=O)c2c(F)cccc2F)C(=O)N(c2ccc(SC(F)(F)F)cc2F)C1 [III-161, 1-(2,6-difluorobenzoyl)-3-[2-fluoro-4-(trifluoromethylthio)phenyl]-5-aceyltetrahydro-1,3,5-triazin-2(1H)-one] | 100
O=C(c1c(F)cccc1Cl)N1COCN(c2ccc(SC(F)(F)F)c(Cl)c2Cl)C1=O [I-269] | 100
O=C(c1c(F)cccc1Cl)N1COCN(c2ccc(SC(F)(F)C(F)(F)C(F)(F)F)cc2F)C1=O [I-320] | 100
O=C(c1c(F)cccc1F)N1CN(C(=O)C(F)(F)F)CN(c2ccc(Oc3ccc(C(F)(F)F)cc3Cl)cc2F)C1=O [III-32] | 100
O=C(c1c(F)cccc1F)N1CN(C2CC2)CN(c2cc(Cl)c(F)c(Cl)c2F)C1=O [III-53] | 100
O=C(c1c(F)cccc1F)N1CN(Cc2ccccc2)CN(c2ccc(Cl)cc2)C1=O [III-4] | 100
CS(=O)(=O)N1CN(C(=O)c2c(F)cccc2F)C(=O)N(c2ccc([S+]([O-])C(F)(F)F)cc2F)C1 (stereo not drawn) [III-166] | 100
CS(=O)(=O)N1CN(C(=O)c2c(F)cccc2F)C(=O)N(c2ccc(SC(F)F)cc2F)C1 [III-150] | 100
Cc1cc([S+]([O-])C(F)(F)F)c(F)cc1N1COCN(C(=O)c2c(F)cccc2Cl)C1=O (stereo not drawn) [I-303] | 100
CSc1cc(F)c(N2COCN(C(=O)c3c(F)cccc3F)C2=O)c(F)c1 [I-31] | 100
CN1CN(C(=O)c2c(F)cccc2F)C(=O)N(c2cc(Cl)c(OC(F)(F)C(F)C(F)(F)F)cc2Cl)C1 (stereo not drawn) [III-69] | 100

SMILES | rate of dead pests (%)
O=C(c1c(F)cccc1Cl)N1COCN(c2ccc([S+]([O-])C(F)(F)F)c(Cl)c2F)C1=O (stereo not drawn) [I-273] | 100
O=C(c1c(F)cccc1Cl)N1COCN(c2ccc([S+]([O-])C(F)(F)F)c(F)c2F)C1=O (stereo not drawn) [I-285] | 100
O=C(c1c(F)cccc1F)N1COCN(c2ccc(SC(F)(F)F)c(Cl)c2Cl)C1=O [I-92] | 100
Cc1cc(SC(F)(F)F)ccc1N1COCN(C(=O)c2c(F)cccc2F)C1=O [I-68] | 100
O=C(c1c(F)cccc1F)N1COCN(c2cc(Cl)c([S+]([O-])C(F)(F)F)cc2F)C1=O (stereo not drawn) [I-99] | 100
O=C(c1c(F)cccc1Cl)N1COCN(c2ccc(SC(F)(F)C(F)(F)F)cc2F)C1=O [I-305] | 100
CN1CN(C(=O)c2c(F)cccc2F)C(=O)N(c2cc(Cl)c(F)c(Cl)c2F)C1 [III-51] | 100
O=C(c1c(F)cccc1F)N1COCN(c2ccc(SC(F)(F)F)c(F)c2)C1=O [I-80] | 100
Cc1cc([S+]([O-])C(F)(F)F)c(Cl)cc1N1COCN(C(=O)c2c(F)cccc2F)C1=O (stereo not drawn) [I-90] | 100
O=C(c1c(F)cccc1Cl)N1COCN(c2c(F)cc(SC(F)(F)F)c(F)c2F)C1=O [I-293] | 100
O=C(c1c(F)cccc1Cl)N1COCN(c2ccc([S+]([O-])C(F)(F)F)c(Cl)c2Cl)C1=O (stereo not drawn) [I-270] | 100
O=C(c1c(F)cccc1F)N1COCN(c2ccc(SC(F)(F)F)c(F)c2F)C1=O [I-107] | 100
O=C(c1c(F)cccc1Cl)N1COCN(c2ccc([S+]([O-])C(F)(F)C(F)(F)C(F)(F)F)cc2Cl)C1=O (stereo not drawn) [I-324] | 100
O=C(c1c(F)cccc1Cl)N1COCN(c2c(F)cc([S+]([O-])C(F)(F)F)cc2F)C1=O (stereo not drawn) [I-282] | 100
Cc1cc(SC(F)(F)F)c(Cl)cc1N1COCN(C(=O)c2c(F)cccc2Cl)C1=O [I-266] | 100
O=C(c1c(F)cccc1F)N1COCN(c2ccc(SC(F)(F)F)c(Cl)c2F)C1=O [I-95] | 100
O=C(c1c(F)cccc1Cl)N1COCN(c2ccc(SC(F)(F)F)c(Cl)c2F)C1=O [I-272] | 100
O=C(c1c(F)cccc1F)N1COCN(c2ccc(Oc3ccc(C(F)(F)F)cc3Cl)cc2F)C1=O [I-3] | 100
Cc1cc([S+]([O-])C(F)(F)C(F)(F)C(F)(F)F)c(Cl)cc1N1COCN(C(=O)c2c(F)cccc2Cl)C1=O (stereo not drawn) [I-330] | 100
CN1CN(C(=O)c2c(F)cccc2F)C(=O)N(c2ccc(SC(F)(F)C(F)Cl)cc2F)C1 (stereo not drawn) [III-76] | 100
CC(C)N1CN(C(=O)c2c(F)cccc2F)C(=O)N(c2cc(Cl)c(F)c(Cl)c2F)C1 [III-52] | 100
O=C(c1c(F)cccc1F)N1COCN(c2cc(F)c(SC(F)(F)F)c(F)c2)C1=O [I-113] | 100
O=C(c1c(Cl)cccc1Cl)N1COCN(c2ccc(SC(F)F)cc2F)C1=O [I-395] | 100
O=C(c1c(F)cccc1F)N1COCN(c2ccc([S+]([O-])C(F)(F)F)c(Cl)c2F)C1=O (stereo not drawn) [I-96] | 100
CC(=O)N1CN(C(=O)c2c(F)cccc2F)C(=O)N(c2ccc([S+]([O-])C(F)(F)F)cc2F)C1 (stereo not drawn) [III-165] | 100
O=C(c1c(F)cccc1Cl)N1COCN(c2ccc(SC(F)(F)F)c(F)c2)C1=O [I-257] | 100

Same assay, conditions: 120 h; 100 ppm; sprayed on soybean; third-instar larvae of Spodoptera litura; fifth day after; read-out: rate of dead pests (%)

SMILES | pest or weed control at 100 ppm [%]
O=C(c1c(F)cccc1F)N1CNCN(c2ccc(Cl)cc2)C1=O [III-6, 1-(4-chlorophenyl)-3-(2,6-difluorobenzoyl)tetrahydro-1,3,5-triazin-2(1H)-one] | 100
CS(=O)(=O)N1CN(C(=O)c2c(F)cccc2F)C(=O)N(c2ccc(SC(F)(F)F)cc2F)C1 [III-162, 1-(2,6-difluorobenzoyl)-3-[2-fluoro-4-(trifluoromethylthio)phenyl]-5-methylsulfonyltetrahydro-1,3,5-triazin-2(1H)-one] | 100
O=C(OCc1ccccc1)N1CN(C(=O)c2c(F)cccc2F)C(=O)N(c2ccc(Cl)cc2)C1 [III-7, 5-benzyloxycarbonyl-1-(4-chlorophenyl)-3-(2,6-difluorobenzoyl)tetrahydro-1,3,5-triazin-2 (1H)-one] | 100
O=C(c1c(F)cccc1F)N1COCN(c2ccc(SC(F)(C(F)(F)F)C(F)(F)F)cc2F)C1=O [I-158, 3-(2,6-difluorobenzoyl)-5-[2-fluoro-4-(1,1,1,2,3,3,3-heptafluoro-2-propylthio)phenyl]tetrahydro-4H-1,3,5-oxadiazin-4-one] | 100

Same assay, conditions: Spodoptera litura, in Glycine max, 120 h, read-out: rate of dead pests (%)

SMILES | pest or weed control at 100 ppm [%]
O=C(c1c(F)cccc1F)N1COCN(c2ccc(SC(F)(F)C(F)(F)C(F)(F)F)cc2F)C1=O [I-143, 3-(2,6-difluorobenzoyl)-5-[2-fluoro-4-(1,1,2,2,3,3,3-heptafluoro-1-propylthio)phenyl]tetrahydro-4H-1,3,5-oxadiazin-4-one] | 100
